For 1 compound, EC50 results are on record in article PMC10563396, “Anti-Inflammatory Role of TRPV4 in Human Macrophages” (ImmunoHorizons, 2023).

By EC50 is commonly meant the concentration at which the effect is half-maximal. A low value points to a more potent agent.

This experiment concerns the target TRPV4 (Homo sapiens, UniProt Q9HBA0). Put plainly: fura […] Ca2+ imaging dose response in human primary monocyte-derived macrophages (endogenous TRPV4); response reduced by TRPV4 siRNA knockdown; EC50 […] (GM-CSF) and […] (M-CSF). It is filed as cell-based.

The structures appear in SMILES notation.

TRPV4, sequence (Q9HBA0 whole entry): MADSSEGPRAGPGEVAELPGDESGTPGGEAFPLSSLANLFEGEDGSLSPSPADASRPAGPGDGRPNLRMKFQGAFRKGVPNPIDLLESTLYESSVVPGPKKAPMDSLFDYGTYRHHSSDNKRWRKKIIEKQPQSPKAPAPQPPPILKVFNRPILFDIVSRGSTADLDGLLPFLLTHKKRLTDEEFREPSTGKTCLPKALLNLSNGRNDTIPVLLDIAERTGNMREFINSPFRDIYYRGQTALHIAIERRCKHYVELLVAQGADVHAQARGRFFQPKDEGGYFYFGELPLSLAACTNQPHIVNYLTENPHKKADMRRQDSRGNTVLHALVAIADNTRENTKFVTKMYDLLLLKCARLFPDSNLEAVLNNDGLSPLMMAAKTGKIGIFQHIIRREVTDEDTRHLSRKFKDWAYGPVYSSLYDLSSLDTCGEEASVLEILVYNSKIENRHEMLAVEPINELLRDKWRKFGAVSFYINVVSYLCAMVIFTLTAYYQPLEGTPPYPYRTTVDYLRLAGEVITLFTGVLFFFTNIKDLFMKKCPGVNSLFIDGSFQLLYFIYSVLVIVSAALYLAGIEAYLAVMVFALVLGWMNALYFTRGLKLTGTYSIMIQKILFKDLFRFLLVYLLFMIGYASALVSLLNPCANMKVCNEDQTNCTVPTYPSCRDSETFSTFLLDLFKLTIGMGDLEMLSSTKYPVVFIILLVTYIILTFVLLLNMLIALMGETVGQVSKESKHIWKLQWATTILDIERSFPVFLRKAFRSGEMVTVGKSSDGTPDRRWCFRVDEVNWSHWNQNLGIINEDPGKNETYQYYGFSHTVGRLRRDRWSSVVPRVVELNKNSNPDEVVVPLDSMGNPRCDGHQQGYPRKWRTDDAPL

Turning to `CC(C)C[C@H](NC(=O)c1cc2ccccc2s1)C(=O)N1CCN(C(=O)[C@H](CO)NS(=O)(=O)c2ccc(Cl)cc2Cl)CC1` [GSK1016790A], the EC50 amounted to 580 nM.
